pIC50: −log10 of the molar value.
How the values were obtained:
NAMPT [1] = biological target: T1, NAMPT (Homo sapiens, UniProt P43490); assay: Time-Resolved Fluorescence Resonance Energy Transfer (TR-FRET) Binding Assay of NAMPT; conditions: 6.8 nM NAMPT, 200 nM probe, equilibrated 3 hours, no substrates
Outline: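 IC50s come from four-parameter logistic fits of control-normalized Em520/Em495 TR-FRET ratios (Ex 337 nm) against compound concentration. Before reading, enzyme, probe, antibody and compound equilibrated for 3 h at room temperature.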

NAMPT [2] = biological target: T1, NAMPT; assay: TR-FRET Binding Assay of NAMPT with PRPP; conditions: 2 nM NAMPT, 2 nM probe, 200 µM PRPP and 2.5 mM ATP, equilibrated 16 hours
Outline: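 Substrates present: PRPP at 200 µM and ATP at 2.5 mM, final, alongside 2 nM enzyme, 2 nM tracer and 1 nM terbium anti-His donor in 2% DMSO. A 16-hour equilibration preceded the time-resolved FRET read, allowing compounds to be enzymatically modified.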

PC3 cells = assay: NAMPT Cell Proliferation Assay (Cell Titer Glo); assay type: cell-based; conditions: Homo sapiens, PC-3, 120 h, incubated 5 days, cell viability
Outline: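 Viability measured by Cell Titer Glo luminescence after 5-day exposure of attached PC3 cells to compound, dosed as 10-fold serial dilutions ([…]) in RPMI/10% FBS at 37 °C and 5% CO2. Percent inhibition fitted to sigmoidal dose-response curves for IC50.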

T1 sequence (P43490 whole entry): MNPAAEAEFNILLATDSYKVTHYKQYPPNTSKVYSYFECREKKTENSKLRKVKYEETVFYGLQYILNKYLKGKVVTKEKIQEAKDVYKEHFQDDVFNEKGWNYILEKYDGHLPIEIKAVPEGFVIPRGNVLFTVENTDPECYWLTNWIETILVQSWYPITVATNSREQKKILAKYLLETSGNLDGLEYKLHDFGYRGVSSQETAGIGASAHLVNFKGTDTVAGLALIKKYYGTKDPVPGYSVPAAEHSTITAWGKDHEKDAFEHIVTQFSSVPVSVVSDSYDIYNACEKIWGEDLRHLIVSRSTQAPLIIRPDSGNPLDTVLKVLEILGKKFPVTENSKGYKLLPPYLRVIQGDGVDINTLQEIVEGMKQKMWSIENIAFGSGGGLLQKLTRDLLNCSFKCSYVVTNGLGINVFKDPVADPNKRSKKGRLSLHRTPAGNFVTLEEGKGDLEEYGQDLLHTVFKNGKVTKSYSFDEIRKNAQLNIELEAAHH

Row | Structure (SMILES) | pIC50 (NAMPT [1]) | pIC50 (NAMPT [2]) | pIC50 (PC3 cells)
1 | O=C(Nc1ccc(C2CCN(C(=O)c3nccs3)CC2)cc1)N1CC(c2cccnc2)C1 [Example 195, 3-(pyridin-3-yl)-N-{4-[1-(1,3-thiazol-2-ylcarbonyl)piperidin-4-yl]phenyl}azetidine-1-carboxamide] | 8.38 | 9.55 | 8.06
2 | CC1(C(=O)N2CCC(c3ccc(NC(=O)N4CC(c5cccnc5)C4)cc3)C2)CCCCC1 (stereo not drawn) [Example 276, N-(4-{1-[(1-methylcyclohexyl)carbonyl]pyrrolidin-3-yl}phenyl)-3-(pyridin-3-yl)azetidine-1-carboxamide] | 7.91 | 9.46 | 8.00
3 | CC(C)(C)CC(=O)N1CC(Oc2ccc(NC(=O)N3CC(c4cccnc4)C3)cc2)C1 [Example 133, N-(4-{[1-(3,3-dimethylbutanoyl)azetidin-3-yl]oxy}phenyl)-3-(pyridin-3-yl)azetidine-1-carboxamide] | 7.88 | 9.45 | 8.35
4 | Cc1noc(C)c1C(=O)N1CC(Oc2ccc(NC(=O)N3CC(c4cccnc4)C3)cc2)C1 [Example 145, N-[4-({1-[(3,5-dimethyl-1,2-oxazol-4-yl)carbonyl]azetidin-3-yl}oxy)phenyl]-3-(pyridin-3-yl)azetidine-1-carboxamide] | 7.04 | 9.22 | 7.13
5 | CC(C)(O)C(=O)N1CC=C(c2ccc(NC(=O)N3CC(c4cccnc4)C3)cc2)CC1 [Example 12, N-{4-[1-(2-hydroxy-2-methylpropanoyl)-1,2,3,6-tetrahydropyridin-4-yl]phenyl}-3-(pyridin-3-yl)azetidine-1-carboxamide] | 7.49 | 9.37 | 8.00
6 | CCCCC(=O)N1CC(c2ccc(NC(=O)N3CC(c4cccnc4)C3)cc2)C1 [Example 198, N-[4-(1-pentanoylazetidin-3-yl)phenyl]-3-(pyridin-3-yl)azetidine-1-carboxamide] | 7.19 | 9.47 | 7.32
7 | CCOCCC(=O)N1CCC(c2ccc(NC(=O)N3CC(c4cccnc4)C3)cc2)CC1 [Example 168, N-{4-[1-(3-ethoxypropanoyl)piperidin-4-yl]phenyl}-3-(pyridin-3-yl)azetidine-1-carboxamide] | 7.54 | 9.30 | 7.35
8 | CC1CC1C(=O)N1CC[C@@H](Oc2ccc(NC(=O)N3CC(c4cccnc4)C3)cc2)C1 (stereo partly drawn) [Example 301, N-[4-({(3R)-1-[(2-methylcyclopropyl)carbonyl]pyrrolidin-3-yl}oxy)phenyl]-3-(pyridin-3-yl)azetidine-1-carboxamide] | 7.23 | 9.61 | 7.66
9 | O=C(CC1C[C@@H]2CC[C@H]1C2)N1CC(Oc2ccc(NC(=O)N3CC(c4cccnc4)C3)cc2)C1 (stereo partly drawn) [Example 122, N-[4-({1-[(1S,4R)-bicyclo[2.2.1]hept-2-ylacetyl]azetidin-3-yl}oxy)phenyl]-3-(pyridin-3-yl)azetidine-1-carboxamide] | 7.78 | 9.23 | 8.06
10 | O=C(CC1CCCCC1)N1CCC(c2ccc(NC(=O)N3CC(c4cccnc4)C3)cc2)CC1 [Example 178, N-{4-[1-(cyclohexylacetyl)piperidin-4-yl]phenyl}-3-(pyridin-3-yl)azetidine-1-carboxamide] | 7.86 | 9.38 | 7.12
11 | Cc1ccc(C(=O)N2CCC(c3ccc(NC(=O)N4CC(c5cccnc5)C4)cc3)CC2)s1 [Example 189, N-(4-{1-[(5-methylthiophen-2-yl)carbonyl]piperidin-4-yl}phenyl)-3-(pyridin-3-yl)azetidine-1-carboxamide] | 7.65 | 9.68 | 7.66
12 | CC(C)(C)CC(=O)N1CCC(c2ccc(NC(=O)N3CC(c4cccnc4)C3)cc2)CC1 [Example 170, N-{4-[1-(3,3-dimethylbutanoyl)piperidin-4-yl]phenyl}-3-(pyridin-3-yl)azetidine-1-carboxamide] | 8.15 | 9.44 | 7.83
13 | O=C(Nc1ccc(C2CCN(C(=O)c3ccoc3)C2)cc1)N1CC(c2cccnc2)C1 (stereo not drawn) [Example 264, N-{4-[1-(furan-3-ylcarbonyl)pyrrolidin-3-yl]phenyl}-3-(pyridin-3-yl)azetidine-1-carboxamide] | 7.39 | 9.73 | 7.45
14 | O=C(Nc1ccc(C2CCN(CC3CCOC3)CC2)cc1)N1CC(c2cccnc2)C1 (stereo not drawn) [Example 243, 3-(pyridin-3-yl)-N-{4-[1-(tetrahydrofuran-3-ylmethyl)piperidin-4-yl]phenyl}azetidine-1-carboxamide] | 5.90 | 9.49 | 5.88
15 | CC1CC1C(=O)N1CCC(c2ccc(NC(=O)N3CC(c4cccnc4)C3)cc2)C1 (stereo not drawn) [Example 262, N-(4-{1-[(2-methylcyclopropyl)carbonyl]pyrrolidin-3-yl}phenyl)-3-(pyridin-3-yl)azetidine-1-carboxamide] | 7.22 | 9.60 | 7.29
16 | Cn1cccc1C(=O)N1CC[C@@H](Oc2ccc(NC(=O)N3CC(c4cccnc4)C3)cc2)C1 [Example 325, N-[4-({(3R)-1-[(1-methyl-1H-pyrrol-2-yl)carbonyl]pyrrolidin-3-yl}oxy)phenyl]-3-(pyridin-3-yl)azetidine-1-carboxamide] | 7.73 | 9.44 | 7.95
17 | O=C(CC1CCOCC1)N1CCC(Oc2ccc(NC(=O)N3CCN(c4cccnc4)CC3)cc2)CC1 [Example 162, 4-(pyridin-3-yl)-N-(4-{[1-(tetrahydro-2H-pyran-4-ylacetyl)piperidin-4-yl]oxy}phenyl)piperazine-1-carboxamide] | 6.45 | 9.24 | 6.57
18 | CC(C)(C)OC(=O)N1CCC(c2ccc(NC(=O)N3CC(c4cccnc4Cl)C3)cc2)CC1 [Example 112, tert-butyl 4-[4-({[3-(2-chloropyridin-3-yl)azetidin-1-yl]carbonyl}amino)phenyl]piperidine-1-carboxylate] | 7.36 | 7.34 | 6.04
19 | O=C(CN1CCCC1)N1CC(Oc2ccc(NC(=O)N3CC(c4cccnc4)C3)cc2)C1 [Example 155, 3-(pyridin-3-yl)-N-(4-{[1-(pyrrolidin-1-ylacetyl)azetidin-3-yl]oxy}phenyl)azetidine-1-carboxamide] | 6.40 | 9.37 | 6.89
20 | CC(C)CC(=O)N1CCC(c2ccc(NC(=O)N3CC(c4cccnc4)C3)cc2)C1 (stereo not drawn) [Example 294, N-{4-[1-(3-methylbutanoyl)pyrrolidin-3-yl]phenyl}-3-(pyridin-3-yl)azetidine-1-carboxamide] | 7.35 | 9.70 | 7.22
21 | O=C(Nc1ccc(OC2CN(C(=O)c3cccs3)C2)cc1)N1CC(c2cccnc2)C1 [Example 141, 3-(pyridin-3-yl)-N-(4-{[1-(thiophen-2-ylcarbonyl)azetidin-3-yl]oxy}phenyl)azetidine-1-carboxamide] | 7.75 | 9.60 | 8.08
22 | CCOCC(=O)N1CC=C(c2ccc(NC(=O)N3CC(c4cccnc4)C3)cc2)CC1 [Example 22, N-{4-[1-(ethoxyacetyl)-1,2,3,6-tetrahydropyridin-4-yl]phenyl}-3-(pyridin-3-yl)azetidine-1-carboxamide] | 6.84 | 9.20 | 6.56
23 | O=C(Nc1ccc(C2=CCN(C(=O)[C@H]3CCCO3)CC2)cc1)N1CC(c2cccnc2)C1 [Example 10, 3-(pyridine-3-yl)-N-(4-{1-[(2R)-tetrahydrofuran-2-ylcarbonyl]-1,2,3,6-tetrahydropyridin-4-yl}phenyl)azetidine-1-carboxamide] | 7.38 | 9.60 | 7.41
24 | CCCCC(=O)N1CC(Oc2ccc(NC(=O)N3CC(c4cccnc4)C3)cc2)C1 [Example 117, N-{4-[(1-pentanoylazetidin-3-yl)oxy]phenyl}-3-(pyridin-3-yl)azetidine-1-carboxamide] | 7.73 | 9.49 | 8.01
25 | Cc1ccc(C2CN(C(=O)Nc3ccc(OC4CCN(C(=O)CC5CCOCC5)CC4)cc3)C2)cn1 [Example 8, 3-(6-methylpyridin-3-yl)-N-(4-{[1-(tetrahydro-2H-pyran-4-ylacetyl)piperidin-4-yl]oxy}phenyl)azetidine-1-carboxamide] | 6.21 | 7.81 | 5.15
26 | CCC(=O)N1CC(c2ccc(NC(=O)N3CC(c4cccnc4)C3)cc2)C1 [Example 226, N-[4-(1-propanoylazetidin-3-yl)phenyl]-3-(pyridin-3-yl)azetidine-1-carboxamide] | 6.77 | 9.36 | 6.70
27 | CSCCC(=O)N1CC=C(c2ccc(NC(=O)N3CC(c4cccnc4)C3)cc2)CC1 [Example 24, N-(4-{1-[3-(methylsulfanyl)propanoyl]-1,2,3,6-tetrahydropyridin-4-yl}phenyl)-3-(pyridin-3-yl)azetidine-1-carboxamide] | 6.77 | 9.01 | 6.95
28 | COCC(=O)N1CC[C@@H](Oc2ccc(NC(=O)N3CC(c4cccnc4)C3)cc2)C1 [Example 331, N-(4-{[(3R)-1-(methoxyacetyl)pyrrolidin-3-yl]oxy}phenyl)-3-(pyridin-3-yl)azetidine-1-carboxamide] | 7.09 | 9.45 | 7.37
